From US12227747B2, “Composition comprising aptamer as active ingredient for treatment and prevention of degenerative brain disease” (Nexmos Co., LTD, priority 2018, dated 2025) come the findings set out here.

pKd: −log10 of the molar value. A value given as a limit tells only on which side of the number the result lay.

A short description of series [1]: Fluorescence-based microplate assay (OPDA) of ascorbic acid oxidation. In kind it is physicochemical. The text has this:
(§1) FIGS. 4-5 is a diagram showing a fluorescence-based microplate assay that inhibits ascorbic acid oxidation, and FIG. 4 is an experimental result using OPDA, a substance that becomes fluorescent by binding to DHA. […] FIG. 5 is a comparison of the antioxidant activity of remaining ascorbic acid using DCPIP after AptaminC3T31+ascorbic acid and ascorbic acid were left for 8 weeks under the same conditions. AptaminC3T31+ascorbic acid maintained 50% antioxidant activity even after 8 weeks,
The oxidation of ascorbic acid was measured in reverse with detecting the oxidized product dehydroascorbic acid (DHA) with modifying a method described in Vislisel et al. (Vislisel, J. M. Schafer, F. O. and Buettner, G. R. (2007) Analytical biochemistry, 365, 31-39).
Briefly, aptamers were incubated with AA (10.3 μM) at 4× concentration for 30 minutes at room temperature before addition of 25 μM H2O2 (Sigma). Before the addition of OPDA dye (Sigma), the oxidizing agent sample was added and incubated at room temperature for 10 minutes. Immediately after addition of the dye (954.6 μM) sample, and read at excitation 345 nm; emission: 425 nm with a SpectraMax® plate reader (Molecular Devices) for 45 minutes at intervals of 60 seconds until the control converges. […] All fluorescence assays were performed in black 384-well plates (greiner bio-one). […]

Series [2] can be described thus: Storage of vitamin C with aptamer at room temperature for 8 weeks, reducing activity by DCPIP. It counts as physicochemical. To be noted: FIG. 5.
From the text: as §1
The aptamin C of the present invention was maintained at room temperature for 8 weeks and the reducing activity of ascorbic acid was measured using DCPIP (2,6-Dichlorophenolindophenol).

Series [3] is described as follows: ITC (Isothermal Titration calorimetry) of the aptamer binding to ascorbic acid. To be noted: FIG. 7, read-out: binding affinity between the aptamer and ascorbic acid.

As for “AptaminC3T31: DNA aptamer binding vitamin C (ascorbic acid); SEQ ID NO: 1, GTGGAGGCGGTGGCCAGTCTCGCGGTGGCGGC (DNA GTGGAGGCGGTGGCCAGTCTCGCGGTGGCGGC; listed as DNA, chemistry not given here)”, the “oxidation of ascorbic acid (DHA detected with OPDA fluorescence)” value in series [1] (ascorbic acid treated with hydrogen peroxide, FIG. 4) is on record as “oxidation of ascorbic acid is prevented”. In addition, the “ability to protect AA from oxidation” value in series [1] (screen of top 20 candidate aptamers from SELEX) is “best effect”. Also, the “increase of shelf life compared to ascorbic acid alone” value in series [2] was ≥ 4 times. In series [3], the pKd is 6.05.
